Measurements taken from US20160319277A1, “METHODS OF IMPROVED PROTEIN PRODUCTION USING MIRNAs AND SIRNAs” (THE JOHNS HOPKINS UNIVERSITY, priority 2015, published 2016).

What was measured:
HEK-CMV-Luc2-Hygro cells = assay: Effect of exogenous polyamines on luciferase expression and cell growth; settings: for effect of higher concentrations on luciferase expression and viable cell: concentrations above the optimum; for concentration with inhibitory effects: culture medium with ruminant serum
Description: FIG. 13: Effect of exogenous polyamines on luciferase expression and cell growth. Two different passages of cells were treated with the indicated concentrations of polyamines and each biological sample was measured in triplicates. Error bars represent SEM.
To further verify this, the impacts of exogenously added polyamines on luciferase expression level and viable cell number were determined.

[1] = test system: CMV-Luc2-HygroHEK293 cell line; assay: Validation of miRNAs with luciferase-expressing cells (ONE-Glo / CellTiter-Glo, 12-well); assay type: cell-based, human; settings: 40 nM miRNA, 72 h; for improvement of luciferase expression (per cell luciferase activity): 12-well, versus siN.C.
Description: CMV-Luc2-HygroHEK293 cell line constitutively expressing luciferase is purchased from Promega. Validation transfections were performed in 12-well plates with miScript miRNA mimics (Qiagen, Cat. No. 219600-S0), SilencerSelect™ Negative Control #2 and lethal control siRNA (Qiagen AllStars Cell Death Control™) served as a control for transfection efficiency. Cells were transfected in duplicates as described above in the screening method with the following modification: 0.1 million cells were transfected with 40 nM miRNA using 6.25 ul Lipofectamine™ RNAiMax in a total volume of 1 mL of media. 72 hours after transfection, 500 μL of ONE-Glo™ Reagent (Promega) was added to one set of replicates for luciferase activity quantification and 500 μL of CellTiter-Glo™ Reagent (Promega) was added to the second set of replicates for viable cell density measurement. All plates were incubated at room temperature for 20 minutes to stabilize luminescent signal and then measured with SpectraMax i3™ plate reader (Molecular Devices). Per cell luciferase production was calculated from overall luciferase activity and viable cell number.

HEK-GPC3-hFc cell line = assay: Validation of miRNAs with GPC3-hFc-expressing cells (ELISA and cell count); assay type: cell-based, human; settings: 40 nM miRNA, 6 days after transfection, versus siN.C.
Description: HEK-GPC3-hFc cell line constitutively secreting glypican-3 hFc-fusion protein (GPC3-hFc) was a gift from the National Cancer Institute of the NIH. Cells were grown in DMEM supplemented with 10% FBS in a humidified incubator set at 37° C. and 5% CO2.
Cells were transfected in 12-well plates as described above in the screening method with the following modification: 0.15 million cells were transfected with 40 nM miRNA using 6.25 ul Lipofectamine™ RNAiMax in a total volume of 1 mL of media. 6 days after transfection, cell culture supernatant was collected and cleared using centrifuge for GPC3-hFc concentration determination with ELISA and cells were detached and counted by trypan blue exclusion using a CEDEX™ cell quantification system (Roche, Mannheim, Germany). Per cell GPC3-hFc production can be calculated from overall GPC3-hFc yield and viable cell number.
AffiniPure™ F(ab′)2 Fragment Goat Anti-Human IgG (min X Bov, Ms, Rb Sr Prot, Cat. 109-006-170, Jackson Immunology) was used to coat a 96-well plate at 5 μg/mL in PBS buffer, 50 μL per well, at 4° C. overnight. After the plate was blocked with 2% BSA in PBS buffer, pre-diluted cell culture supernatant was added, and the plate was incubated at room temperature for one hour to allow binding to occur. After the plate was washed twice with PBS containing 0.05% Tween 20, Peroxidase-conjugated AffiniPure™ Goat-anti-uman IgG (Cat. 109-035-098, Jackson Immunology) was added at 1:4000 dilutions, 50 ul/well. Following incubating at room temperature for one hour, the plate was washed 4 times and detected with Peroxidase Substrate System (KPL).

[2] = test system: T-REx-293-NTSR1-GFP cells; assay: High-throughput human miRNA mimic library screen, image-based per cell green fluorescence (NTSR1-GFP expression); settings: per cell green fluorescence intensity; for MAD-based z-score: 72 h after transfection plus 24 h tetracycline induction
Description: T-REx-293-NTSR1-GFP cells were screened with a miRNA mimic library (Qiagen) based on Sanger miRBase™ 13.0 and consisting of 875 miRNAs mimics. For transfection, 0.8 pmol of each mimic was spotted to 384 well plate wells (Corning) and 20 μL of serum-free DMEM containing 0.1 μL of Lipofectamine™ RNAiMax (Life Technologies) was then added to each well. This lipid-miRNA mixture was incubated at ambient temperature for 30 min prior to adding 2000 cells in 20 μL of DMEM containing 20% certified FBS (Gibco). Transfected cells were incubated at 37° C. in 5% CO2 for 72 hours and induced with 1 μg/mL tetracycline for 24 hours for NTSR1-GFP expression. Cells were then fixed with 2% paraformaldehyde (Electron Microscopy Sciences), stained with Hoechst™ 33342 (Life Technologies) for 45 minutes and gently washed with PBS. Plates were imaged with an ImageXpress Micro XL™ (Molecular Devices). Total cell number and per cell green fluorescence intensity were calculated using MetaXpress™ software (Molecular Devices) employing the Multi-Wavelength Cell Scoring™ application module. […] A full column of positive control siRNA targeting GFP (GFP-22 siRNA, Qiagen) was also used as on-plate reference for transfection efficiency. The median absolute deviation (MAD)-based z-score was calculated for each sample.

NTSR1 = assay: [3H]NT binding assay on detergent-solubilized cells for functional expression of NTSR1; assay type: cell-based; settings: [3H]NT binding
Description: Validation transfections were performed in 12-well plates with miScript™ miRNA mimics (Qiagen, Cat. No. 219600-S0), SilencerSelect™ Negative Control #2 and lethal control siRNA (Qiagen AllStars Cell Death Control™) served as a control for transfection efficiency. Cells were transfected as described for screening except 0.15 million cells were transfected with 40 nM miRNA using 6.25 ul Lipofectamine™ RNAiMax in a total volume of 1 mL of media. 72 hours after transfection, cells were induced with 1 μg/mL tetracycline. 24 hours later, cells from each well were detached with non-enzymatic cell dissociation buffer (Gibco, Cat. No. 13150-016) and washed twice with cold PBS. Cell densities and viability were determined by trypan blue exclusion using a CEDEX™ cell quantification system (Roche, Mannheim, Germany). Based on the counts, cell densities were adjusted to 0.5 million cells/ml with PBS and then subject to flow cytometry analysis. The remaining cells were pelleted and frozen on dry ice for [^3H]NT binding assays.
The detergents n-Dodecyl-β-D-maltoside (LM), 3-[(3-cholamidopyropyl) dimethylammonio]-1-propane sulfonate (CHAPS) and cholesteryl hemisuccinate Tris salt (CHS) were obtained from Anatrace. Cell pellets from 2 mL of suspension culture were suspended in Tris-glycerol-NaCl buffer. Then the detergents LM, CHAPS and CHS were added to give a final buffer composition of 50 mM TrisHCl pH 7.4, 200 mM NaCl, 30% (v/v) glycerol, 1% (w/v) LM, and 0.6% (w/v) CHAPS and 0.12% (w/v) CHS in a total volume of 0.5 mL. The samples were placed on a rotating mixer at 4° C. for 1 hour. Cell debris and non-solubilized material were removed by ultracentrifugation (TL100 rotor, 60 k rpm, 4° C., 30 min in Optima Max™ bench-top ultracentrifuge, Beckman), and the supernatants containing detergent-solubilized NTSR1 were used to determine the total number of expressed receptors by a detergent-based radio-ligand binding assay (see below).
Tritiated neurotensin agonist [^3H]NT ([3,11-tyrosyl-3,5-^3H(N)]-pyro[…] SEQ ID NO:27) was purchased from Perkin Elmer. Ligand-binding assays with detergent-solubilized receptors were carried out in TEBB assay buffer (50 mM Tris pH 7.4, 1 mM EDTA, 40 μg/mL bacitracin, 0.1% BSA) containing 0.1% (w/v) LM, 0.2% (w/v) CHAPS and 0.04% (w/v) CHS. For one-point assays, receptors were incubated with 2 nM [^3H]NT on ice for 1 hour in a volume of 150 μL. The concentration of [^3H]NT used was at least 5-fold above the apparent dissociation constants for detergent-solubilized NTSR1 to allow high receptor occupancy. Separation of the receptor-ligand complex from free ligand (100 μL) was achieved by centrifugation-assisted gel filtration using Bio-Spin™ 30 Tris columns (BioRad), equilibrated with RDB buffer (50 mM Tris-HCl, pH 7.4, 1 mM EDTA, 0.1% (w/v) LM, 0.2% (w/v) CHAPS, 0.04% (w/v) CHS). Non-specific [^3H]NT binding of 220 dpm was subtracted from total binding to calculate the total amount of receptors in T-REx-293-NTSR1-GFP cells. The number of functional NTSR1 was estimated by specific [^3H]NT binding assuming one ligand-binding site per receptor molecule. The number of cells in the assay was derived by cell counting at cell harvest. This approach led to the calculation of the parameter “receptors/cell”.

Molecule	improvement of per cell GPC3-hFc secretion (HEK-GPC3-hFc cell line)	Signal relative to negative control (%) [2]	MAD-based z-score [2]	improvement of functional expression of NTSR1 compared with siN.C. (NTSR1)	improvement of luciferase expression (per cell luciferase activity) [1]	further results
NCCCCN [putrescine]	–	–	–	–	–	increase of luciferase expression (HEK-CMV-Luc2-Hygro cells; added to medium at 100 μM): up to 40%; enhanced growth (HEK-CMV-Luc2-Hygro cells; addition at 50 μM): 10%; effect of higher concentrations on luciferase expression and viable cell (HEK-CMV-Luc2-Hygro cells): did not lead to further enhancement of luciferase production
NCCCCNCCCN [spermidine]	–	–	–	–	–	increase in cell growth (HEK-CMV-Luc2-Hygro cells; at 10 μM): 24%; increase in luciferase expression (HEK-CMV-Luc2-Hygro cells; at 20 μM): 36%; concentration with inhibitory effects (HEK-CMV-Luc2-Hygro cells): > 100 µM
NCCCNCCCCNCCCN [spermine]	–	–	–	–	–	increase in luciferase expression (HEK-CMV-Luc2-Hygro cells; at 10 μM): 16%; effect of higher concentrations on luciferase expression and viable cell (HEK-CMV-Luc2-Hygro cells): caused reduction in both luciferase expression and viable cell; concentration with inhibitory effects (HEK-CMV-Luc2-Hygro cells): > 20 µM
AAGCUGCCAGUUGAAGAACUGU (listed as RNA, chemistry not given here; listed as Homo sapiens) [miR-22-3p, human miRNA mimic]	enhanced per cell GPC3-hFc secretion	158%	2.3	–	–	cell growth (viable cell density) [1]: inhibited cell growth; overall production of luciferase higher than negative control siN.C. [1]: 127%; change of overall GPC3-hFc production (HEK-GPC3-hFc cell line): effectively enhanced overall GPC3-hFc
ACCUGGCAUACAAUGUAGAUUU (listed as RNA, chemistry not given here; listed as Homo sapiens) [miR-221-5p, human miRNA mimic]	–	248%	5.3	not associated with enhanced binding activity	–	–
AGUUCUUCAGUGGCAAGCUUUA (listed as RNA, chemistry not given here; listed as Homo sapiens) [miR-22-5p, human miRNA mimic]	enhanced per cell GPC3-hFc secretion	215%	4.0	–	relevant for improving luciferase expression	change of overall GPC3-hFc production (HEK-GPC3-hFc cell line): effectively enhanced overall GPC3-hFc
AUCGCUGCGGUUGCGAGCGCUGU (listed as RNA, chemistry not given here; listed as Homo sapiens) [miR-639, human miRNA mimic]	–	165%	2.4	not associated with enhanced binding activity	–	–
CACUGGCUCCUUUCUGGGUAGA (listed as RNA, chemistry not given here; listed as Homo sapiens) [miR-892b, human miRNA mimic]	–	201%	3.7	not associated with enhanced binding activity	239%	cell growth (viable cell density) [1]: inhibited cell growth; overall production of luciferase higher than negative control siN.C. [1]: 188%
CUUUUUGCGGUCUGGGCUUGC (listed as RNA, chemistry not given here; listed as Homo sapiens) [miR-129-5p, human miRNA mimic]	–	172%	2.7	not associated with enhanced binding activity	–	–
UAAGGUGCAUCUAGUGCAGAUAG (listed as RNA, chemistry not given here; listed as Homo sapiens) [miR-18a-5p, human miRNA mimic]	enhanced per cell GPC3-hFc secretion	149%	2.0	improved functional activity levels	relevant for improving luciferase expression	change of overall GPC3-hFc production (HEK-GPC3-hFc cell line): effectively enhanced overall GPC3-hFc
UAAUACUGUCUGGUAAAACCGU (listed as RNA, chemistry not given here; listed as Homo sapiens) [miR-429, human miRNA mimic]	enhanced per cell GPC3-hFc secretion	212%	4.2	improved functional activity levels	relevant for improving luciferase expression	–
UGGUUGUAGUCCGUGCGAGAAUA (listed as RNA, chemistry not given here; listed as Homo sapiens) [miR-1974, human miRNA mimic]	–	201%	3.6	–	–	–
